Assay [1] has as its target T1, heme oxygenase-1 (HO-1) (Homo sapiens, UniProt P09601).
T1 construct: gene HMOX1; Luc-HO-1 (N-terminal luciferase fusion); with cytochrome P450 reductase (CPR-GFP)
T1 sequence (P09601 1-288): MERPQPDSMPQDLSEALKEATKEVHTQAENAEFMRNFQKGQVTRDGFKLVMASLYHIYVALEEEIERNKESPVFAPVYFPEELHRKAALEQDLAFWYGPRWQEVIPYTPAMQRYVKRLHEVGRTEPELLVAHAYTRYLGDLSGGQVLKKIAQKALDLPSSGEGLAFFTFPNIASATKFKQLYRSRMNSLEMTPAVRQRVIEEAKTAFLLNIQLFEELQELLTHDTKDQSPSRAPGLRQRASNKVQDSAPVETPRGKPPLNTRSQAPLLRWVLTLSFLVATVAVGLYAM
T1 sequence (P16435 2-677 partner): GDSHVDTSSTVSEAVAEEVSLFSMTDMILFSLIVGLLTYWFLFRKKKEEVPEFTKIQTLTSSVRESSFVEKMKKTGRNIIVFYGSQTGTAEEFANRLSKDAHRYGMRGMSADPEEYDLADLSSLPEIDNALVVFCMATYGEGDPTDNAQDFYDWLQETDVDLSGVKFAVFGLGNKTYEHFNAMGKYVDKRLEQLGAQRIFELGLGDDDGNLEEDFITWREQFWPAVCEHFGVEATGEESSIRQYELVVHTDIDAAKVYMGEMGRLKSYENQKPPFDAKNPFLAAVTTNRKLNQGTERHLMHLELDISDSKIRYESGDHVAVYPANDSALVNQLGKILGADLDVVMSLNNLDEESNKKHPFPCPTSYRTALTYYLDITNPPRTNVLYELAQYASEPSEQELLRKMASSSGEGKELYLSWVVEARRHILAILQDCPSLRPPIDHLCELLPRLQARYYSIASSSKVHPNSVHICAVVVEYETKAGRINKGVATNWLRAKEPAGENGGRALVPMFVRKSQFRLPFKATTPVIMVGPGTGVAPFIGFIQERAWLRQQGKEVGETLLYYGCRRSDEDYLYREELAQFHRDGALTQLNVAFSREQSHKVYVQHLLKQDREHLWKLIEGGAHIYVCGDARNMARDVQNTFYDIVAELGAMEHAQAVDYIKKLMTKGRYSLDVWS
Kind of assay: cell-based BRET inhibition of HO-1/CPR interaction in HEK293T. For orientation: Bioluminescence resonance energy transfer reports proximity on the nanometre scale.

Assay [2] deals with T2, heme oxygenase-1 (HO-1) (Homo sapiens, UniProt P09601).
T2 construct: gene HMOX1; truncated human HO-1 (aa 13–260), C-terminal 6 x His-tag (pull-down); Luc-HO-1 (BRET); with cytochrome P450 reductase (CPR-GFP)
T2 sequence (P09601 13-260): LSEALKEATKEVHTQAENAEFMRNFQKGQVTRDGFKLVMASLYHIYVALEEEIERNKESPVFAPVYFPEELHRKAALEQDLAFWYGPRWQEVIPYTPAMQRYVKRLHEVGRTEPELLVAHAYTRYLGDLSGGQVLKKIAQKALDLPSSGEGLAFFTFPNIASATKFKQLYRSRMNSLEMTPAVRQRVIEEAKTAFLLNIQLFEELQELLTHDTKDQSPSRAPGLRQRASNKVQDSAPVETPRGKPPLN
T2 sequence (P16435 2-677 partner): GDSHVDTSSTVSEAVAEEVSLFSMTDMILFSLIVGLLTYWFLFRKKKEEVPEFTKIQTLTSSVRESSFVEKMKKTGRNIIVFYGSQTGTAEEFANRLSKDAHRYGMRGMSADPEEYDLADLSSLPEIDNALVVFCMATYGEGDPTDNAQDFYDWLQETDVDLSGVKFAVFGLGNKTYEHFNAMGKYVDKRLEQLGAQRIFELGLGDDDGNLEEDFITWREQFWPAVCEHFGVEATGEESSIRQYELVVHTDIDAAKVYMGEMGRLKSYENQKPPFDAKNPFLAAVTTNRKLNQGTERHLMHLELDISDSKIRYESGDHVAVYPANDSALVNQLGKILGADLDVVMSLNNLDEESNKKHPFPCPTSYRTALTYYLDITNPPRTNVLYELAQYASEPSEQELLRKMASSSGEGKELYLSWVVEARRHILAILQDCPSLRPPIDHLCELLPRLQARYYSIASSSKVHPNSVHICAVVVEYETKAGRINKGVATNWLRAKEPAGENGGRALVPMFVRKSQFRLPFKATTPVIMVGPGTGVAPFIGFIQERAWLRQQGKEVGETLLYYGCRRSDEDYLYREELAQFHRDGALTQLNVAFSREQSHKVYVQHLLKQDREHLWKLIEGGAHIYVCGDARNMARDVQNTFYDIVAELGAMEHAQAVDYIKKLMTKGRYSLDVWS
The experiment in a line: pull-down of purified His-HO-1 by resin-bound CPR-GFP ([…] danthron); IC50 from cell-based BRET.

Assay [3] deals with T3, CPR construct with its carboxyl-terminus fused to GFP (CPR-GFP) (human, UniProt P16435 1-677).
T3 construct: human cytochrome P450 reductase (CPR) cDNA subcloned with GFP2 cDNA into a pCMV-2 vector; BRET acceptor; bait on anti-GFP Sepharose in the pull-down; also called cytochrome P450 reductase; source: HEK293T, transfected; not shown: GFP2, C-terminal, kept
T3 sequence (looked up): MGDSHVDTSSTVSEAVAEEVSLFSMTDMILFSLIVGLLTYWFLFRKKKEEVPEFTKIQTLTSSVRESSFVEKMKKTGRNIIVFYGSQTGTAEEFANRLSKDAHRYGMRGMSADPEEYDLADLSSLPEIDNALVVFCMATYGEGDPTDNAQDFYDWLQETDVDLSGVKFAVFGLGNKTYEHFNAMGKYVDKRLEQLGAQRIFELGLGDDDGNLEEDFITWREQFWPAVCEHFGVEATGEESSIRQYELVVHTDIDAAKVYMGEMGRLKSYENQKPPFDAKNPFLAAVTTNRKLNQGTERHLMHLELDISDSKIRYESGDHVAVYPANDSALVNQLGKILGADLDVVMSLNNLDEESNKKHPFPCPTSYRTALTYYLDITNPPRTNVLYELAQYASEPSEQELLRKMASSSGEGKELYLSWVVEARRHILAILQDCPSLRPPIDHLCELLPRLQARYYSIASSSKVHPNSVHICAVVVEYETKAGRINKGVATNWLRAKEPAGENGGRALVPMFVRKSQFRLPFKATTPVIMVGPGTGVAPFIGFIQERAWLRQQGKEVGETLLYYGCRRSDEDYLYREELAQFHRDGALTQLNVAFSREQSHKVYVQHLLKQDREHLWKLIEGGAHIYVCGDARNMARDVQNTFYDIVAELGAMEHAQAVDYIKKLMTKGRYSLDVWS
Kind of assay: pull-down; CPR-GFP immunoprecipitated from HEK293T lysate on anti-GFP-affinity Sepharose, washed, incubated with 1 ug His-HO-1 or His-HO-2 in 100 ul buffer A (20 mM Tris-HCl pH 7.4, 100 mM NaCl) at room temperature for 1 h, without or with 10 uM danthron or anthrarufin; blot with anti-His and anti-GFP. Particulars: both partners purified.

The IC50 is the concentration that gives 50% inhibition.

The molecule `O=C1c2cccc(O)c2C(=O)c2c(O)ccc(O)c21` [1,4,5-trihydroxyanthra-9,10-quinone] had a concentration for half-maximal inhibition (IC50) on heme oxygenase-1 (HO-1) [1] of 10.4 µM. On to `O=C1c2ccccc2C(=O)c2c(O)cccc21` [1-hydroxyanthra-9,10-quinone], for which, on heme oxygenase-1 (HO-1) [1], the IC50 was 10.1 µM.

Take `O=C1c2cccc(O)c2C(=O)c2c(O)cccc21` [danthron]: on heme oxygenase-1 (HO-1) [2], the half-inhibitory concentration (IC50) worked out at 2.09 µM.

B1: recombinant soluble His-tagged HO-2 (His-HO-2), human HO-2 construct (aa 33-288) (domain or fragment, UniProt P30519 33-288, looked up)
chain: LSELLKEGTKEAHDRAENTQFVKDFLKGNIKKELFKLATTALYFTYSALEEEMERNKDHPAFAPLYFPMELHRKEALTKDMEYFFGENWEEQVQCPKAAQKYVERIHYIGQNEPELLVAHAYTRYMGDLSGGQVLKKVAQRALKLPSTGEGTQFYLFENVDNAQQFKQLYRARMNALDLNMKTKERIVEEANKAFEYNMQIFNELDQAGSTLARETLEDGFPVHDGKGDMRKCPFYAAEQDKGALEGSSCPFRTAM
notes: human heme oxygenase-2, construct aa 33-288, in pQE-60 vector; not shown: His6, C-terminal, kept
Regarding B1, the binding result in assay [3] is reported as “binds”.
